Source: patent US11717477B2, “Vaginal systemic drug delivery” (LiGalli B.V., priority 2018, dated 2023)
Where “and” joins values, the source holds several entries; their conditions need not be identical. Equal entries are not always repeated. Structures can show the parent of a compound that is named as a salt. Where two headings read alike, the source gives them in different places.

Legend:
in vivo = details: female, Beagle, dog
[1] = cited from earlier work
[2] = cited from earlier work; remark: listed apart in the source
[3] = physiological release of oxytocin; cited from earlier work
[4] = 0.8 mg, Lorazepam 0.8 mg (1st), vaginal, present study
[5] = 0.8 mg, Lorazepam 0.8 mg (2nd), vaginal, present study
[6] = vaginal administration, Beagle dogs, two animals per compound
[7] = Human, Lorazepam 2.0 mg, intramuscular, Wermeling
[8] = Human, Lorazepam 2.0 mg, intravenous, Wermeling
[9] = Human, Lorazepam 2.0 mg, nasal, Wermeling
[10] = Human, Lorazepam 2.0 mg, oral, Blin
[11] = 5 min after first vaginal dose, individual dogs
[12] = 10 min after first vaginal dose, individual dogs
[13] = 20 min after first vaginal dose, individual dogs
[14] = 30 min after first vaginal dose, individual dogs
[15] = 60 min after first vaginal dose, individual dogs
[16] = 135 min after first dose (second vaginal dose at 125 min), individual dogs
[17] = 155 min after first dose (second vaginal dose at 125 min), individual dogs
[18] = 185 min after first dose (second vaginal dose at 125 min), individual dogs
[19] = Dog, Lorazepam 0.8 mg (1st), vaginal, present study
[20] = Human, Nicotine 2.0 mg, intrapulmonary, Russell
[21] = Human, Nicotine 4.0 mg, oral (gum), Russell
[22] = Dog, 2.5 mg/24 h, vaginal (ring), WO2011163358
[23] = Dog, 6.0 mg/24 h, vaginal (ring), WO2011163358
[24] = Dog, 10 mg/24 h, oral, WO2011163358
[25] = Human, dose 5.0, dermal (patch), Kennelly
[26] = Human, dose 5.0, oral (ext. rel.), Kennelly
[27] = Human, dose 5.0, oral, Kennelly
[28] = Human, dose 100, dermal (gel), Kennelly

Structure (SMILES): CC(C)C[C@H](NC(=O)CNC(=O)[C@H](Cc1ccc(O)cc1)NC(=O)[C@H](CO)NC(=O)[C@H](Cc1c[nH]c2ccccc12)NC(=O)[C@H](Cc1cnc[nH]1)NC(=O)[C@@H]1CCC(=O)N1)C(=O)N[C@@H](CCCNC(=N)N)C(=O)N1CCC[C@H]1C(=O)NCC(N)=O [GnRH, Gonadotropin-releasing hormone]
- Tmax (in vivo; 0.5 mg): 10 min
- level at 20 min (in vivo; 50 uL, Plasma concentration): 0.41 ng/mL
- level at 0.5 h (in vivo; 50 uL, Plasma concentration): 0.2 ng/mL
- level at 2.25 h (in vivo; 50 uL, Plasma concentration): 0.71 ng/mL
- level at 245 min (in vivo; 50 uL, Plasma concentration): 0.19 ng/mL
- Tmax (in vivo): ≤ 5 min
- Cmax ([1]; human, in vivo, inhaled or intranasal, 0.8 mg): 0.35 ng/mL
- Cmax ([1]; human, in vivo): 0.002 ng/mL
- Plasma concentration (dog, in vivo): <LLOQ
- Time until plasma levels fall below LLOQ / return to baseline (dog, in vivo): ≤ 60 min
- Tmax (female, Beagle, dog, in vivo, 0.5 mg): 5 min

Structure (SMILES): O=C1Nc2ccc(Cl)cc2C(c2ccccc2Cl)=NC1O (stereo not drawn) [Lorazepam]
- Cmax (in vivo; [4]): 4 ng/mL
- Cmax (in vivo; [5]): 7.8 ng/mL
- Tmax (in vivo; [4]): 5 min
- Tmax (in vivo; [5]): 10 min
- Tmax (in vivo; [6]): 10 min
- Cmax [1, 7]: 22.6 ng/mL
- Tmax [1, 7]: 180 min
- Cmax [1, 8]: 47.6 ng/mL
- Tmax [1, 8]: 6 min
- Cmax [1, 9]: 33.4 ng/mL
- Tmax [1, 9]: 55 min
- Cmax [1, 10]: 33.4 ng/mL
- Tmax [1, 10]: 55 min
- Plasma concentration [11]: 1.55 ng/mL and 3.93 ng/mL
- Plasma concentration [12]: 2.65 ng/mL and 3.47 ng/mL
- Plasma concentration [13]: 2.23 ng/mL and 4.25 ng/mL
- Plasma concentration [14]: 1.49 ng/mL and 3.28 ng/mL
- Plasma concentration [15]: 0.38 ng/mL and 0.99 ng/mL
- Plasma concentration [16]: 7.65 ng/mL and 7.13 ng/mL
- Plasma concentration [17]: 4.96 ng/mL and 6.16 ng/mL
- Plasma concentration [18]: 1.89 ng/mL and 3.32 ng/mL
- Cmax [19]: 2.8 ng/mL
- Tmax [19]: 10 min
- Cmax (Dog, Lorazepam 0.8 mg (2nd), vaginal, present study): 7.0 ng/mL
- Plasma concentration (Pre-dose, individual dogs): <LLOQ
- Time until plasma levels fall below LLOQ / return to baseline (after vaginal administration, Beagle dogs): ≤ 120 min
- Tmax [6]: 20 min

Structure (SMILES): CN1CCCC1c1cccnc1 (stereo not drawn) [Nicotine]
- Tmax ([2]; dog, in vivo, po, 64 mg): 120 min
- Tmax ([2]; dog, in vivo, po, 148 mg): 60 min
- Tmax (in vivo; 2.5 mg): 10 min
- Tmax (in vivo): ≤ 5 min
- Cmax [1, 20]: 49 ng/mL
- Tmax [1, 20]: 2 min
- Cmax [1, 21]: 40 ng/mL
- Tmax [1, 21]: 30 min
- Cmax / plasma concentration of one animal relative to the other animal (dog, in vivo): more than 4 times
- Time until plasma levels fall below LLOQ / return to baseline (female, Beagle, dog, in vivo): ≤ 120 min
- Tmax (female, Beagle, dog, in vivo): 10 min
- Tmax (female, Beagle, dog, in vivo, 2.5 mg): 5 min

Structure (SMILES): O=[N+]([O-])OCC(CO[N+](=O)[O-])O[N+](=O)[O-] [Nitroglycerin]
- Plasma concentration [11]: <LLOQ
- Plasma concentration [12]: <LLOQ
- Plasma concentration [13]: <LLOQ
- Plasma concentration [14]: <LLOQ
- Plasma concentration [15]: <LLOQ
- Plasma concentration (120 min after first vaginal dose, individual dogs): <LLOQ
- Plasma concentration [16]: <LLOQ
- Plasma concentration [17]: <LLOQ
- Plasma concentration [18]: <LLOQ
- Plasma concentration (245 min after first dose (second vaginal dose at 125 min), individual dogs): <LLOQ
- Plasma concentration (Pre-dose, individual dogs): <LLOQ
- Parent compound concentration detectable in plasma (after vaginal administration of Nitroglycerin, Beagle dogs, listed as nitroglycerin): no detectable concentrations

Structure (SMILES): CCN(CC)CC#CCOC(=O)C(O)(c1ccccc1)C1CCCCC1 (stereo not drawn) [Oxybutynin HCl]
- Cmax [2, 22]: 14.0 ng/mL
- Tmax [2, 22]: 90 min
- Cmax [2, 23]: 18.8 ng/mL
- Tmax [2, 23]: 90 min
- Cmax [2, 24]: 17.9 ng/mL
- Tmax [2, 24]: 180 min
- Tmax (in vivo): 10 min
- Cmax [1, 25]: 4.2 ng/mL
- Tmax [1, 25]: 1500 min
- Cmax [1, 26]: 2.1 ng/mL
- Tmax [1, 26]: 60 min
- Cmax [1, 27]: 10.0 ng/mL
- Tmax [1, 27]: 50 min
- Cmax [1, 28]: 3.2 ng/mL
- Tmax [1, 28]: 1500 min
- Cmax / plasma concentration of one animal relative to the other animal (dog, in vivo): more than 3 times
- Elimination from the body (dog, in vivo): almost completely eliminated
- Plasma concentration (dog, in vivo): <LLOQ

Structure (SMILES): CC[C@H](C)[C@@H]1NC(=O)[C@H](Cc2ccc(O)cc2)NC(=O)[C@@H](N)CSSC[C@@H](C(=O)N2CCC[C@H]2C(=O)N[C@@H](CC(C)C)C(=O)NCC(N)=O)NC(=O)[C@H](CC(N)=O)NC(=O)[C@H](CCC(N)=O)NC1=O [oxytocin]
- half life time [3]: less than 6 minutes
